Source: patent publication US20080039450A1, “Compounds” (priority 2006, published 2008)

Molecular target: T1, MNK2a (Homo sapiens, UniProt Q9HBH9)
T1 construct: expressed in transfected cells; host or cells: HEK293 cells, transient co-transfection with p-eIF4E and p-MNK2a (FuGene6)
Assay: Cell assay of MNK2a: phosphorylation of downstream substrate eIF4E in HEK293 cells transfected with MNK2a and eIF4E (Western blot)
Assay type: cell-based
Conditions: HEK293 cells over-expressing MNK2a and eIF4E; 60 min incubation; phospho-eIF4E band at 28 kDa by densitometry
Protocol: Analysis of the Effect of MNK-Inhibitors on Phosphorylation of the DownStream Substrate eIF4E
According to the literature el F4E is a unique substrate for MNK1 and MNK2. The purpose of the analysis was to over-express MNK2a together with eIF4E and subsequently incubate with substances of the invention. This would inhibit the MNK2a activity and thereby the phosphorylation of eIF 4E.
Day 1 HEK293 cells were plated in a T162 cm2-flask.
Day 2 Transient transfection with p-elF4E and p-MNK2a. […]
Protein Determination: • The cell lysates were thawed by putting the plates on ice, transferred to Eppendorf tubes and centrifuged at 1300 g, +4° C., 10 min. • 12.5 μl of the supernatant was transferred directly to the plate for protein determination (->dil 1:2) and the rest of the supernatant to new pre-cold tubes and store in −70° C. until assayed. • Day 5-6 Western Blot analysis of cell lysates, according to standard methods, using a specific phospho-elF4E antibody. • To quantify the effect of the substance on the phosphorylation of eIF4E, developed x-ray film from the Western blot analysis was scanned using a densitometer and Image Gauge 4.0 software. The detected band at 28 kDa with 0 μM substance was set to 100%. The density of the band at 28 kDa with the different concentrations of the substance was then analysed. […]

T1 sequence (Q9HBH9 whole entry): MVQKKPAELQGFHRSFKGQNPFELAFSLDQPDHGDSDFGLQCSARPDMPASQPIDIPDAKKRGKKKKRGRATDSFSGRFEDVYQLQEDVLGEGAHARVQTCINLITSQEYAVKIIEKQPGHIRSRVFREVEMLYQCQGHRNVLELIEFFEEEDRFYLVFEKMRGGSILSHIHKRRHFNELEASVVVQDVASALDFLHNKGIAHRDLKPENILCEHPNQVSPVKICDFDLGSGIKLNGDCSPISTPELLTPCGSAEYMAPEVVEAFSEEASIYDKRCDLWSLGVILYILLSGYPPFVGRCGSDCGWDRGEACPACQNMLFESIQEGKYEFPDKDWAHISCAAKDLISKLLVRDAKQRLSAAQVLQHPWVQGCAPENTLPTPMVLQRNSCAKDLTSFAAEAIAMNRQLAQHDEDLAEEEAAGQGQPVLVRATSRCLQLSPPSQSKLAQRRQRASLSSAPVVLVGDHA

IC50 [nM]	Structure (SMILES)
900	O=C(c1ccc(-c2cncc(-c3ccc(O)cc3)n2)cc1)N1CCOCC1 [Example 77, 4-{6-[4-(morpholin-4-ylcarbonyl)phenyl]pyrazin-2-yl}phenol]
1900	Nc1ncc(-c2ccc(C(=O)N3CCOCC3)cc2F)nc1-c1ccc(O)cc1 [Example 6, 4-{3-amino-6-[2-fluoro-4-(morpholin-4-ylcarbonyl)phenyl]pyrazin-2-yl}phenol]
